Test results as given in US4699898A, “Tripeptides affecting immune response” (Imreg, Inc., priority 1985, dated 1987).
Residues, ends and D or L forms follow the SMILES beside them.

Tested on: dermal reaction to tetanus toxoid antigen
Conditions: in vivo

N[C@@H](Cc1ccc(O)cc1)C(=O)NCC(=O)NCC(=O)O [TGG, Tyr-Gly-Gly] (H-Tyr-Gly-Gly-OH)
Dermal reaction without antigen: No reaction was observed
